Results on ten molecules are retold here after PubChem BioAssay AID1259411 (Chemical Carcinogenesis Research Information System (CCRIS), 2018).

The source made the active and inactive calls. The rule behind the calls is not given here.

This data set deals with rodent carcinogenicity bioassays, tumor incidence. Briefly: CCRIS carcinogenicity studies. In short, it runs like this:
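Archive of carcinogenicity, mutagenicity, tumor promotion and tumor inhibition results drawn from journals, NCI reports and other sources, expert-reviewed; covers 1985-2011 and is no longer updated.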

With `CN(N=O)C(CCC(=O)O)c1cccnc1` (stereo unspecified), the carcinogen call (Species: MOUSE, Strain/Sex: STRAIN-A/FEMALE, Route: INTRAPERITONEAL, Dose: 0, 2.23 MG 3/WK FOR 20 WK (STUDY DURATION: 50 WK)) was “inactive; negative”; the carcinogen call (Species: MOUSE, Strain/Sex: STRAIN-A/FEMALE, Route: INTRAPERITONEAL, Dose: 0, 200 UMOL MOUSE (TOTAL DOSE) ADMINISTERED IN 0.1 ML SALINE 3/WK (TOTAL 20 INJECTIONS) (STUDY DURATION: 37 WK)) is “inactive; negative”; the carcinogen call (Species: MOUSE, Strain/Sex: STRAIN-A/FEMALE, Route: INTRAPERITONEAL, Dose: 0, 200 UMOL TOTAL DOSE ADMINISTERED IN SUBDOSES 3/WK FOR 7 WK (STUDY DURATION: 37 WK)) is “inactive; negative”.
`CNC(=S)N(C)C`: the carcinogen call (Species: MOUSE, Strain/Sex: B6C3F1/FEMALE, Route: ORAL, Dose: 0, 500, 1000 PPM IN DIET, Dose: 0, 500, 1000 PPM IN DIET) is “inactive; negative”; the carcinogen call (Species: MOUSE, Strain/Sex: B6C3F1/MALE, Route: ORAL, Dose: 0, 500, 1000 PPM IN DIET, Dose: 0, 500, 1000 PPM IN DIET) was “inactive; negative”; the carcinogen call (Species: RAT, Strain/Sex: F344/FEMALE, Route: ORAL, Dose: 0, 250, 500 PPM IN DIET, Dose: 0, 250, 500 PPM IN DIET, Tumor Site: Type of Lesion: THYROID GLAND: FOLLICULAR CELL CARCINOMA OR ADENOMA) is “active; positive”; the carcinogen call (Species: RAT, Strain/Sex: F344/MALE, Route: ORAL, Dose: 0, 250, 500 PPM IN DIET, Dose: 0, 250, 500 PPM IN DIET) is “inactive; negative”.
Consider `N#Cc1ccc(C/C(=N\NC(=O)Nc2ccc(OC(F)(F)F)cc2)c2cccc(C(F)(F)F)c2)cc1`, for which the carcinogen call was “inactive; negative” (Species: Mouse, Strain/Sex: CD-1/Female (65/Group), Route: Oral, Dose: 0 (aqueous carboxymethylcellulose), 100, 250, 1000 mg/kg/day of 96.3% metaflumizone by gavage for 18 mo, study duration, Dose: 0 (aqueous carboxymethylcellulose), 100, 250, 1000 mg/kg/day of 96.3% metaflumizone by gavage for 18 mo, study duration); “inactive; negative” (Species: Mouse, Strain/Sex: CD-1/Male (65/Group), Route: Oral, Dose: 0 (aqueous carboxymethylcellulose), 100, 250, 1000 mg/kg/day of 96.3% metaflumizone by gavage for 18 mo, study duration, Dose: 0 (aqueous carboxymethylcellulose), 100, 250, 1000 mg/kg/day of 96.3% metaflumizone by gavage for 18 mo, study duration); “inactive; negative” (Species: Rat, Strain/Sex: Sprague-Dawley/Female (80/Group), Route: Oral, Dose: 0 (aqueous carboxymethylcellulose), 30, 60, 300 mg/kg/day (adjusted to 200 mg after 2 weeks of treatment) of 96.3% metaf, Dose: 0 (aqueous carboxymethylcellulose), 30, 60, 300 mg/kg/day (adjusted to 200 mg after 2 weeks of treatment) of 96.3% metaf); “inactive; negative” (Species: Rat, Strain/Sex: Sprague-Dawley/Male (80/Group), Route: Oral, Dose: 0 (aqueous carboxymethylcellulose), 30, 60, 300 mg/kg/day of 96.3% metaflumizone by gavage for 24 mo, study duration 24, Dose: 0 (aqueous carboxymethylcellulose), 30, 60, 300 mg/kg/day of 96.3% metaflumizone by gavage for 24 mo, study duration 24).
In the case of `CC(C)=NO`, the carcinogen call (Species: RAT, Strain/Sex: WISTAR/MALE, Route: ORAL, Dose: 1.0 G/L IN DRINKING WATER 5/WK FOR 18 MO, Tumor Site: Type of Lesion: LIVER: HEPATOCELLULAR ADENOMA) was “active; positive”.
Consider `CNC(=O)Oc1cccc2c1OC(C)(C)C2`, for which the carcinogen call runs as follows: (Species: MOUSE, Strain/Sex: ICR/FEMALE, Route: ORAL, Dose: 0, 3, 8 PPM IN DRINKING WATER FOR 12 MO (STUDY DURATION: 12 MO), Dose: 0, 3, 8 PPM IN DRINKING WATER FOR 12 MO (STUDY DURATION: 12 MO)) “inactive; negative”; (Species: MOUSE, Strain/Sex: ICR/MALE, Route: ORAL, Dose: 0, 3, 8 PPM IN DRINKING WATER FOR 12 MO (STUDY DURATION: 12 MO), Dose: 0, 3, 8 PPM IN DRINKING WATER FOR 12 MO (STUDY DURATION: 12 MO)) “inactive; negative”; (Species: Mouse, Strain/Sex: Charles River CD-1/Female (60/group), Route: Oral, Dose: 0, 20, 125, 500 ppm in diet for 2 yrs, Dose: 0, 20, 125, 500 ppm in diet for 2 yrs) “inactive; negative (study details not given in source; purity 95.6%)”; (Species: Mouse, Strain/Sex: Charles River CD-1/Male (60/group), Route: Oral, Dose: 0, 20, 125, 500 ppm in diet for 2 yrs, Dose: 0, 20, 125, 500 ppm in diet for 2 yrs) “inactive; negative (study details not given in source; purity 95.6%)”; (Species: Rat, Strain/Sex: Charles River CD/Female (60/group), Route: Oral, Dose: 0, 10, 20, 100 ppm in diet for 2 yrs, Dose: 0, 10, 20, 100 ppm in diet for 2 yrs) “inactive; negative (study details not given in source; purity 95.6%)”; (Species: Rat, Strain/Sex: Charles River CD/Male (60/group), Route: Oral, Dose: 0, 10, 20, 100 ppm in diet for 2 yrs, Dose: 0, 10, 20, 100 ppm in diet for 2 yrs) “inactive; negative (study details not given in source; purity 95.6%)”.
Take `O=C(O)CCC(=O)O`: the carcinogen call runs as follows: (Species: RAT, Strain/Sex: F344/FEMALE, Route: ORAL, Dose: 0, 1, 2% IN DRINKING WATER FOR 2 YR (STUDY DURATION: 2 YR), Dose: 0, 1, 2% IN DRINKING WATER FOR 2 YR (STUDY DURATION: 2 YR)) “inactive; negative”; (Species: RAT, Strain/Sex: F344/MALE, Route: ORAL, Dose: 0, 1, 2% IN DRINKING WATER FOR 2 YR (STUDY DURATION: 2 YR), Dose: 0, 1, 2% IN DRINKING WATER FOR 2 YR (STUDY DURATION: 2 YR)) “inactive; negative”.
Take `[O]=[Al][O][Si](=O)O[Si](=O)[O][Al]=[O]`: the carcinogen call (Species: Rat, Strain/Sex: Wistar/Female (48/group), Route: Intratracheal, Dose: 6 mg instillations of 0.01-0.03 um particles given as 10 or 20 doses wk 26, study duration 115 or 121 wk or no treatment, Tumor Site: Type of Lesion: Lung: Bronchiolo-alveolar adenoma (12/48 and 11/47 in experimental animals vs 1/46 control animals), bronchiolo-alveolar) is “active; positive”.
For `CN(C)C(=O)Nc1ccc(Cl)c(Cl)c1`, the carcinogen call is, setting by setting: (Species: MOUSE, Strain/Sex: SWISS/FEMALE, Route: DERMAL, Dose: 0, 250 MG/KG IN 100 µL DMSO TO INTERSCAPULAR REGION 3/WK FOR 3 WK FOLLOWED 1 WK LATER BY 100 µL ACETONE 3/WK FOR DURATIO) “inactive; negative”; (Species: Mouse, Strain/Sex: Bor strain NMRI SPF HAN/Female (60/Group), Route: Oral, Dose: 0, 25, 250, 2500 ppm 98.7% diuron in diet for 24 mo, study duration 24 mo, Dose: 0, 25, 250, 2500 ppm 98.7% diuron in diet for 24 mo, study duration 24 mo, Tumor Site: Type of Lesion: Mammary gland: Adenocarcinoma (highest dose only)) “active; positive. (ca department of pesticide regulation reviewer evaluates as a possibl”; (Species: Mouse, Strain/Sex: Bor strain NMRI SPF HAN/Male (60/Group), Route: Oral, Dose: 0, 25, 250, 2500 ppm 98.7% diuron in diet for 24 mo, study duration 24 mo, Dose: 0, 25, 250, 2500 ppm 98.7% diuron in diet for 24 mo, study duration 24 mo) “inactive; negative”; (Species: Rat, Strain/Sex: Wistar/Female (50/Group), Route: Oral, Dose: 0, 25, 250, 2500 ppm 98.7% diuron in diet for 2 yr, study duration 2 yr, Dose: 0, 25, 250, 2500 ppm 98.7% diuron in diet for 2 yr, study duration 2 yr, Tumor Site: Type of Lesion: Urinary bladder: Transitional epithelial cell carcinoma (highest dose only)) “active; positive. (ca department of pesticide regulation reviewer evaluates as a possibl”; (Species: Rat, Strain/Sex: Wistar/Male (50/Group), Route: Oral, Dose: 0, 25, 250, 2500 ppm 98.7% diuron in diet for 2 yr, study duration 2 yr, Dose: 0, 25, 250, 2500 ppm 98.7% diuron in diet for 2 yr, study duration 2 yr, Tumor Site: Type of Lesion: Urinary bladder: Transitional epithelial cell carcinoma (highest dose only). Kidney: Epithelial cell tumors in renal pel) “active; positive. (ca department of pesticide regulation reviewer evaluates as a possibl”.
In the case of `CCC(C)n1c(=O)[nH]c(C)c(Br)c1=O` (stereo unspecified), the carcinogen call runs as follows: (Species: Mouse, Strain/Sex: CD-1/Female (80/sex/dose), Route: Oral, Dose: 0, 250, 1250, 5000 ppm in diet for 18 mo, Dose: 0, 250, 1250, 5000 ppm in diet for 18 mo) “inactive; negative; purity 95%”; (Species: Mouse, Strain/Sex: CD-1/Male (80/sex/dose), Route: Oral, Dose: 0, 250, 1250, 5000 ppm in diet for 18 mo, Dose: 0, 250, 1250, 5000 ppm in diet for 18 mo, Tumor Site: Type of Lesion: Liver: significant increase in combined hepatocellular adenomas and carcinomas at highest dose, liver lesions (neoplasti) “active; positive: purity 95%”; (Species: Rat, Strain/Sex: Crl:CD (BR)/Female (62/sex/group), Route: Oral, Dose: 0, 50, 250, 2500 ppm in diet for 2 yr, Dose: 0, 50, 250, 2500 ppm in diet for 2 yr) “inactive; negative (mtd may have been exceeded); purity: 95-99%”; (Species: Rat, Strain/Sex: Crl:CD (BR)/Male (62/sex/group), Route: Oral, Dose: 0, 50, 250, 2500 ppm in diet for 2 yr, Dose: 0, 50, 250, 2500 ppm in diet for 2 yr) “inactive; negative (mtd may have been exceeded); purity: 95-99%”.
For the molecule `CCC(C)[C@H]1O[C@]2(CC[C@@H]1C)CC1C[C@@H](C/C=C(\C)[C@@H](O[C@H]3C[C@H](OC)[C@@H](OC4C[C@H](OC)[C@@H](O)[C@H](C)O4)[C@H](C)O3)[C@@H](C)/C=C/C=C3\CO[C@@H]4[C@H](O)C(C)=C[C@@H](C(=O)O1)[C@]34O)O2` (stereo partly specified) (tested in a mixture with another compound), the carcinogen call (Species: RAT, Strain/Sex: WISTAR/MALE, Route: ORAL, Dose: 0, 2 PPM IN DIET FOR DURATION OF STUDY (STUDY DURATION: 1 YR)) was “inactive; negative”.
